Test results taken from patent US20220241311A1, “METHODS AND MATERIALS FOR TREATING GLYCOSYLATION DISORDERS” (priority 2018, published 2022).

What was measured:
[1] = system: PGM1 deficient cell lines; experiment: Lipid-linked and protein-linked oligosaccharide analysis
[2] = system: healthy controls (WT) fibroblasts; experiment: Nucleotide sugar analysis (UPLC-PDA), healthy controls; assay type: cell-based, human
Protocol: Levels of nucleotides and sugar-nucleotides were determined. Fibroblast cell pellets (5×10^6 cells per sample) were lysed and extracted in 0.37 ml ice-cold 0.5 M perchloric acid with sonication on ice. Samples were neutralized with 86 μl ice-cold neutralization solution (2.5 M KOH in 1.5 M K2HPO4) after 5 minute sonication. To remove precipitated potassium perchlorate neutralized samples were centrifuged at 4° C. and 16,400×g for 10 minutes and filtered with 0.2 μm filters. Nucleotides and sugar-nucleotides were immediately analyzed and separated via ion-pair reverse phased chromatography using an Acquity HSS T3 column (150 mm×2.1 mm, 1.7 μm, Waters) connected to an Acquity H-class UPLC system. The column temperature was set to 40° C. and the column was equilibrated with solvent A (50 mM potassium phosphate buffer, 8 mM tetrabutylammonium hydrogensulfate, pH 6.5) at a flow rate of 0.45 ml min^−1. Autosampler temperature was maintained at 6° C. […] Nucleotides were detected by Acquity PDA detector (Waters, 260 nm) and quantified using ultrapure standards (Sigma). Data acquisition and processing was performed with the Empower3 software suite (Waters).
Nucleotide sugars were measured with serum starvation during 18 hours of culturing and without of serum starvation and applying normal media.

PGM1-CDG patients = experiment: Open-label prospective study of oral D-gal supplementation: safety and tolerability; assay type: in vivo, human
Text: The study design was an open-label prospective study. Patients with biochemically and genetically confirmed PGM1 deficiency were recruited into the study. Individuals with an existing diagnosis of aldolase B deficiency, galactosemia, hemolytic uremic syndrome, severe anemia, galactose intolerance, or intellectual disability were excluded from the study. Nine patients were enrolled in the study, five females and four males. Patient age ranged from 19 months to 21 years old at the time of enrollment (mean age 9.75 years). Informed written consent was obtained before the start of study. A primary end-point was to assess the safety and tolerability of oral D-gal supplementation and to identify physiological biomarkers that are responsive to D-gal supplementation in a heterogeneous genetic background. The effect of D-gal in PGM1-CDG patients was also monitored via glycomics. Secondary endpoints were the restoration of the plasma glycan subfractions, monitored via glycomics (Table 3), and normalization of antithrombin III activity and serum alanine transaminase (ALT) levels.
Participants in this pilot study received oral D-gal supplementation, added to the regular diet, over 18 weeks. D-gal (pure and soluble D-galactose powder: D-GALACTOSE or Galaxtra™) was provided as medical food/nutritional supplement. 50 g D-gal equals 5 tablespoons of “powdered sugar”. D-gal was added to a meal once a day. It can be added to any food or drink and has a mildly sweet aftertaste.
The D-gal intake was increased over the study period in increments as follows: weeks 0-6 (T0-T1), 0.5 g/kg per day; weeks 6-12 (T1-T2), 1.0 g/kg per day; weeks 12-18 (T2-T3), 1.5 g/kg per day (FIG. 2). The intake was increased gradually to reach the recommended maximum daily dose with minimal gastrointestinal irritation (diarrhea, stomachache, nausea) and metabolic side effects (presence of urinary galactitol).
Tolerability and side effects of oral D-gal supplementation, based on studies in blood (glucose, lactic acid, ammonia, galactose-1-phosphate) and urine (galactitol excretion), were monitored at every time point.
Dietary assessment, clinical evaluation (general physical examination and anthropometric measurements), and laboratory and biochemical studies were completed every 6 weeks (T0, T1, T2 and T3).
Liver transaminases (aspartate transaminase (AST) and alanine transaminase (ALT)), creatine kinase (CK), commonly assayed glycoproteins (thyroid stimulating hormone (TSH), thyroxine-binding globulin (TBG), and insulin-like growth factor binding protein 3 (IGF3BP)), and coagulation parameters (Factor IX, Factor XI, activated […] (aPTT), and anti-thrombin III (ATIII)), were measured in blood. Patent 1 had additional Factor XI, and XIII measurements. Serum galactose-1-phosphate and urine galactitol were measured to monitor safety and tolerability of galactose supplementation. Biochemical studies to evaluate changes in glycosylation included isoelectric focusing (IEF) of serum transferrin and glycomic analysis in blood by mass spectrometry.
Electrocardiography/echocardiography and hepatic ultrasonography were conducted at T0 and T3.

[3] = cited from earlier work

With `O=C[C@H](O)[C@@H](O)[C@@H](O)[C@H](O)CO` [D-gal, D-galactose] the PLO profile ([1]; all four patient cell lines) was “In none of the patients galactose supplementation had an effect”, the “Shortened LLO (Man9GlcNAc2-PP-dolichol)” value ([1]; patient 8) was “No improvement” and the “Shortened LLO (Man9GlcNAc2-PP-dolichol)” value ([1]; patients 1, 2, cell-line 2013Y, 10 mM D-gal, LLO profile similar to control) was “reduction of shortened LLO”. It also gave an ADP ([2]; WT, 1 d 2 mM Galactose) of 483.78 pmol/mio cells, an AMP ([2]; WT, 1 d 2 mM Galactose) of 10.14 pmol/mio cells and an ATP ([2]; WT, 1 d 2 mM Galactose) of 2604.27 pmol/mio cells. It also gave a CTP ([2]; WT, 1 d 2 mM Galactose) of 291.83 pmol/mio cells, a GDP ([2]; WT, 1 d 2 mM Galactose) of 194.35 pmol/mio cells and a GDP-Man ([2]; WT, 1 d 2 mM Galactose) of 72.63 pmol/mio cells. The GTP ([2]; WT, 1 d 2 mM Galactose) was 491.50 pmol/mio cells, the UDP ([2]; WT, 1 d 2 mM Galactose) was 159.94 pmol/mio cells and the UDP-Gal ([2]; WT, 1 d 2 mM Galactose) was 400.64 pmol/mio cells. For the same compound, the UDP-Glc ([2]; WT, 1 d 2 mM Galactose) was 345.82 pmol/mio cells, the UTP ([2]; WT, 1 d 2 mM Galactose) was 1267.16 pmol/mio cells and the cAMP ([2]; WT, 1 d 2 mM Galactose) was 77.78 pmol/mio cells. It also gave an ADP ([2]; WT, 1 d + 0.75 mM Galactose) of 506.33 pmol/mio cells, an AMP ([2]; WT, 1 d + 0.75 mM Galactose) of 16.00 pmol/mio cells and an ATP ([2]; WT, 1 d + 0.75 mM Galactose) of 2677.06 pmol/mio cells. For the same compound, the CTP ([2]; WT, 1 d + 0.75 mM Galactose) was 288.74 pmol/mio cells, the GDP ([2]; WT, 1 d + 0.75 mM Galactose) was 215.25 pmol/mio cells and the GDP-Man ([2]; WT, 1 d + 0.75 mM Galactose) was 97.79 pmol/mio cells. It also gave a GTP ([2]; WT, 1 d + 0.75 mM Galactose) of 519.85 pmol/mio cells, a UDP ([2]; WT, 1 d + 0.75 mM Galactose) of 164.12 pmol/mio cells and a UDP-Gal ([2]; WT, 1 d + 0.75 mM Galactose) of 298.39 pmol/mio cells. It also gave a UDP-Glc ([2]; WT, 1 d + 0.75 mM Galactose) of 313.93 pmol/mio cells, a UTP ([2]; WT, 1 d + 0.75 mM Galactose) of 1283.20 pmol/mio cells and a cAMP ([2]; WT, 1 d + 0.75 mM Galactose) of 70.82 pmol/mio cells. For the same compound, the ADP ([2]; WT, 4 d 2 mM Galactose) was 800.89 pmol/mio cells, the AMP ([2]; WT, 4 d 2 mM Galactose) was 43.70 pmol/mio cells and the ATP ([2]; WT, 4 d 2 mM Galactose) was 4045.74 pmol/mio cells. The CTP ([2]; WT, 4 d 2 mM Galactose) was 267.44 pmol/mio cells, the GDP ([2]; WT, 4 d 2 mM Galactose) was 375.01 pmol/mio cells and the GDP-Man ([2]; WT, 4 d 2 mM Galactose) was 179.79 pmol/mio cells. It also gave a GTP ([2]; WT, 4 d 2 mM Galactose) of 706.71 pmol/mio cells, a UDP ([2]; WT, 4 d 2 mM Galactose) of 209.11 pmol/mio cells and a UDP-Gal ([2]; WT, 4 d 2 mM Galactose) of 227.46 pmol/mio cells. The UDP-Glc ([2]; WT, 4 d 2 mM Galactose) was 272.66 pmol/mio cells, the UDP-GlcNAc ([2]; WT, 4 d 2 mM Galactose) was 5.74 pmol/mio cells and the UTP ([2]; WT, 4 d 2 mM Galactose) was 1538.99 pmol/mio cells. The cAMP ([2]; WT, 4 d 2 mM Galactose) was 71.87 pmol/mio cells, the ADP ([2]; WT, 4 d + 0.75 mM Galactose) was 670.35 pmol/mio cells and the AMP ([2]; WT, 4 d + 0.75 mM Galactose) was 28.04 pmol/mio cells. The ATP ([2]; WT, 4 d + 0.75 mM Galactose) was 4021.73 pmol/mio cells, the CTP ([2]; WT, 4 d + 0.75 mM Galactose) was 254.91 pmol/mio cells and the GDP ([2]; WT, 4 d + 0.75 mM Galactose) was 307.92 pmol/mio cells. The GDP-Man ([2]; WT, 4 d + 0.75 mM Galactose) was 191.57 pmol/mio cells, the GTP ([2]; WT, 4 d + 0.75 mM Galactose) was 691.97 pmol/mio cells and the UDP ([2]; WT, 4 d + 0.75 mM Galactose) was 156.18 pmol/mio cells. It also gave a UDP-Gal ([2]; WT, 4 d + 0.75 mM Galactose) of 219.26 pmol/mio cells, a UDP-Glc ([2]; WT, 4 d + 0.75 mM Galactose) of 268.34 pmol/mio cells and a UTP ([2]; WT, 4 d + 0.75 mM Galactose) of 1495.61 pmol/mio cells. For the same compound, the cAMP ([2]; WT, 4 d + 0.75 mM Galactose) was 67.63 pmol/mio cells, the “UDP-Glc and UDP-Gal levels” value ([2]; control cells, increase on first day of D-gal) was “normalized at 4 days” and the “Nucleotide sugar ratio UDP-Glc/UDP-Gal, mean” value ([2]; controls, both with or without D-gal) was 1.2. For the same compound, the Serious adverse events (PGM1-CDG patients; 18 weeks oral D-gal) was “No serious adverse events were reported”, the “Galactitol excretion in urine” value (PGM1-CDG patients; during the trial) was “no patients experiencing increased galactitol excretion in urine” and the Adverse events (PGM1-CDG patients; incremental increase in D-gal intake, monitored weekly) was “Aside from gastroenteritis in patient 2, no clinical or metabolic adverse events”. For the same compound, the Galactose-1-phosphate levels (PGM1-CDG patients; patients 1, 2, 3, 5, 7, 9, T2 and T3) was “no abnormalities were found”, the “Structural cardiac or liver changes” value (PGM1-CDG patients; study endpoint) was “No structural cardiac or liver changes were noted” and the Clinical rhabdomyolysis (PGM1-CDG patients; while on galactose supplementation) was “none of the patients experienced clinical rhabdomyolysis”. For the same compound, the “Peak concentration of D-gal in blood” value ([3]; 1.0 g/kg dose) was 2.25 mM, the “Blood concentration of D-gal” value ([3]; oral dose of 0.3 g/kg) was 750 µM and the Blood peak concentration ([3]; oral dose of 1.5 g/kg) was 3.5 mM.
